Experimental data from the supplement of paper PMC10307832.

Legend:
Test in all cases: relative viability (nuclei count vs DMSO), 5 days (fraction); higher = more cells survive
Erlotinib + Pemetrexed = compound: C#Cc1cccc(Nc2ncnc3cc(OCCOC)c(OCCOC)cc23)c1 [Erlotinib] + Nc1nc2[nH]cc(CCc3ccc(C(=O)N[C@@H](CCC(=O)O)C(=O)O)cc3)c2c(=O)[nH]1 [Pemetrexed] (partner 0.2 µM)
Outline: (§1)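 For relative viability, nuclei counts in treated wells were divided by those in vehicle wells. Lung cancer cell lines had been pin-tool dosed in 1536-well plates the day after seeding and cultured for 5 days, then fixed and stained in one step (final 0.05% Triton X-100, 1% formaldehyde, 1 ug/ml Hoechst) and imaged at 4×. Doses were one drug alone or a fixed anchor-drug dose plus five library-drug doses (not always all listed) in √10 steps, and values are duplicate-plate medians.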

Erlotinib + Bortezomib = compound: C#Cc1cccc(Nc2ncnc3cc(OCCOC)c(OCCOC)cc23)c1 [Erlotinib] + CC(C)C[C@H](NC(=O)[C@H](Cc1ccccc1)NC(=O)c1cnccn1)B(O)O [Bortezomib] (partner 0.002 µM)
Outline: as §1

AT9283 + Dasatinib = compound: O=C(Nc1c[nH]nc1-c1nc2ccc(CN3CCOCC3)cc2[nH]1)NC1CC1 [AT9283] + Cc1nc(Nc2ncc(C(=O)Nc3c(C)cccc3Cl)s2)cc(N2CCN(CCO)CC2)n1 [Dasatinib] (partner 0.075 µM)
Outline: as §1

AT9283 + Luminespib = compound: O=C(Nc1c[nH]nc1-c1nc2ccc(CN3CCOCC3)cc2[nH]1)NC1CC1 [AT9283] + CCNC(=O)c1noc(-c2cc(C(C)C)c(O)cc2O)c1-c1ccc(CN2CCOCC2)cc1 [Luminespib] (partner 0.01 µM)
Outline: as §1

Erlotinib + OSI-027 = compound: C#Cc1cccc(Nc2ncnc3cc(OCCOC)c(OCCOC)cc23)c1 [Erlotinib] + COc1cccc2cc(-c3nc([C@H]4CC[C@H](C(=O)O)CC4)n4ncnc(N)c34)[nH]c12 [OSI-027] (partner 0.5 µM)
Outline: as §1

Row | Cell Line | relative viability (Erlotinib + Pemetrexed; first compound 0.02 µM) | relative viability (Erlotinib + Pemetrexed; first compound 0.2 µM) | relative viability (Erlotinib + Pemetrexed; first compound 0.6325 µM) | relative viability (Erlotinib + Pemetrexed; first compound 2 µM) | relative viability (Erlotinib + Bortezomib; first compound 0.02 µM) | relative viability (Erlotinib + Bortezomib; first compound 0.2 µM) | relative viability (Erlotinib + Bortezomib; first compound 0.6325 µM) | relative viability (Erlotinib + Bortezomib; first compound 2 µM) | relative viability (AT9283 + Dasatinib; first compound 0.003 µM) | relative viability (AT9283 + Dasatinib; first compound 0.03 µM) | relative viability (AT9283 + Dasatinib; first compound 0.09487 µM) | relative viability (AT9283 + Dasatinib; first compound 0.3 µM) | relative viability (AT9283 + Luminespib; first compound 0.003 µM) | relative viability (AT9283 + Luminespib; first compound 0.03 µM) | relative viability (AT9283 + Luminespib; first compound 0.09487 µM) | relative viability (AT9283 + Luminespib; first compound 0.3 µM) | relative viability (Erlotinib + OSI-027; first compound 0.02 µM) | relative viability (Erlotinib + OSI-027; first compound 0.2 µM) | relative viability (Erlotinib + OSI-027; first compound 0.6325 µM) | relative viability (Erlotinib + OSI-027; first compound 2 µM)
1 | NCI-H2347 | 0.454 | 0.401 | 0.439 | 0.409 | 0.759 | 0.873 | 1.26 | 0.659 | 0.342 | 0.313 | 0.26 | 0.223 | 0.364 | 0.543 | 0.43 | 0.231 | 0.345 | 0.444 | 0.415 | 0.272
2 | LU99A | 0.166 | 0.196 | 0.16 | 0.151 | 1.34 | 1.1 | 1.24 | 0.899 | 0.546 | 0.195 | 0.229 | 0.247 | 0.24 | 0.301 | 0.225 | 0.221 | 0.295 | 0.303 | 0.284 | 0.259
3 | NCI-H650 | 0.966 | 0.852 | 0.991 | 1 | 0.749 | 0.88 | 0.958 |  | 0.425 | 0.433 | 0.219 | 0.175 | 0.771 | 0.701 | 0.242 | 0.173 | 0.506 | 0.594 | 0.515 | 0.405
4 | HCC-827 | 0.182 | 0.147 | 0.139 | 0.156 | 0.526 | 0.343 | 0.276 | 0.35 | 0.271 | 0.266 | 0.26 | 0.205 | 0.608 | 0.539 | 0.328 | 0.185 | 0.411 | 0.15 | 0.112 | 0.126
5 | 201T | 0.339 | 0.336 | 0.348 | 0.32 | 1.12 | 1.06 | 1.12 | 1.02 | 0.456 | 0.592 | 0.323 | 0.292 | 0.964 | 1 | 0.486 | 0.378 | 0.804 | 0.862 | 0.846 | 0.664
6 | NCI-H2009 | 1.07 | 0.999 | 1.01 | 1.04 | 1.06 | 1.03 | 1.19 | 1.01 | 0.308 | 0.212 | 0.124 | 0.099 | 1.04 | 0.978 | 0.736 | 0.325 | 0.759 | 0.653 | 0.65 | 0.414
7 | EKVX | 0.411 | 0.283 | 0.286 | 0.19 | 1.13 | 0.513 | 0.323 | 0.17 | 0.501 | 0.413 | 0.241 | 0.195 | 0.874 | 0.836 | 0.555 | 0.307 | 0.679 | 0.506 | 0.34 | 0.187
8 | LC-2-ad | 0.307 | 0.279 | 0.274 | 0.262 | 1.02 | 1.02 |  | 0.868 | 0.456 | 0.291 | 0.177 | 0.187 | 0.918 | 0.594 | 0.357 | 0.263 |  | 0.837 | 0.725 | 0.475
9 | HCC-15 | 0.241 | 0.225 | 0.249 | 0.215 | 1.01 | 1.12 | 1.12 | 0.969 | 0.587 | 0.221 | 0.112 | 0.112 | 0.302 | 0.234 | 0.133 | 0.115 | 0.702 | 0.736 | 0.676 | 0.588
10 | PC-3 [JPC-3] | 0.719 | 0.477 | 0.488 | 0.37 | 0.796 | 0.455 | 0.401 | 0.324 | 1.06 | 1.02 | 0.876 | 0.718 | 0.739 | 0.744 | 0.473 | 0.404 | 0.735 | 0.334 | 0.178 | 0.215
11 | ChaGo-K-1 | 0.276 | 0.259 | 0.267 | 0.26 | 0.847 | 1.09 | 1.23 | 0.749 | 0.547 | 0.504 | 0.225 | 0.257 | 0.63 | 0.422 | 0.289 | 0.26 | 0.695 | 0.55 | 0.549 | 0.434
12 | LOU-NH91 | 0.448 | 0.393 | 0.414 | 0.371 | 0.525 | 0.497 | 0.484 | 0.458 | 0.524 | 0.562 | 0.366 | 0.296 | 0.321 | 0.353 | 0.358 | 0.32 | 0.506 | 0.47 | 0.473 | 0.43
13 | NCI-H596 | 0.609 | 0.455 | 0.489 | 0.457 | 1.01 | 0.993 | 1.09 | 0.93 | 0.59 | 0.597 | 0.565 | 0.297 | 1.04 | 1.08 | 0.819 | 0.725 | 0.675 | 0.528 | 0.537 | 0.408
14 | NCI-H3122 | 0.215 | 0.186 | 0.179 | 0.168 | 1.01 | 1.03 | 1.05 | 1.05 | 0.763 | 0.664 | 0.111 | 0.0513 | 0.122 | 0.0841 | 0.051 | 0.0606 | 0.946 | 1.06 | 0.998 | 0.641
15 | NCI-H647 | 0.173 | 0.187 | 0.19 | 0.151 | 1.05 | 0.961 | 1.36 | 0.795 | 0.15 | 0.114 | 0.036 | 0.0661 | 0.152 | 0.201 | 0.169 | 0.183 | 0.594 | 0.606 |  | 0.449
16 | EMC-BAC-2 | 0.466 | 0.425 | 0.432 | 0.421 | 1.09 | 0.972 | 1.05 |  | 0.273 | 0.245 | 0.131 | 0.142 | 1.21 | 0.358 | 0.318 | 0.289 | 0.394 | 0.416 | 0.353 | 0.302
17 | SK-LU-1 | 1.07 | 1.01 | 1.05 |  | 1.07 | 1.55 | 1.61 | 0.984 | 0.217 | 0.124 | 0.0747 | 0.0888 | 0.203 | 0.203 | 0.209 | 0.157 | 0.305 | 0.369 | 0.302 | 0.253
18 | HARA | 0.259 | 0.21 | 0.186 | 0.222 | 1.2 | 1.01 | 0.959 | 0.867 | 0.27 | 0.235 | 0.0621 | 0.0732 | 0.755 | 0.189 | 0.0743 | 0.124 | 0.575 | 0.492 | 0.44 | 0.217
19 | PC-14 | 0.11 | 0.168 | 0.15 | 0.133 | 0.67 | 0.259 | 0.21 | 0.249 | 0.221 | 0.146 | 0.0272 | 0.016 | 0.156 | 0.15 | 0.121 | 0.0746 | 0.43 | 0.0949 | 0.136 | 0.0777
20 | NCI-H1915 | 0.532 | 0.482 | 0.434 | 0.487 | 0.982 | 0.989 | 1.05 | 0.992 | 0.276 | 0.289 | 0.141 | 0.141 | 0.729 | 0.751 | 0.187 | 0.213 | 0.651 | 0.713 | 0.679 | 0.55
21 | COR-L23 | 0.205 | 0.178 | 0.195 | 0.19 | 1.12 | 1.15 | 1.23 | 0.839 | 0.503 | 0.207 | 0.0898 | 0.101 | 0.73 | 0.27 | 0.151 | 0.165 | 0.87 | 0.879 | 0.721 | 0.512
22 | NCI-H838 | 0.263 | 0.253 | 0.233 | 0.266 | 0.8 | 0.491 | 1.18 | 0.694 | 0.302 | 0.255 | 0.222 | 0.188 | 0.341 | 0.232 | 0.203 | 0.22 | 0.421 | 0.474 | 0.359 | 0.319
23 | BEN | 0.766 | 0.83 | 1.03 | 0.766 | 0.644 | 0.864 | 1.28 | 0.886 | 0.256 | 0.369 | 0.311 | 0.14 | 0.28 | 0.336 | 0.198 | 0.107 | 0.334 | 0.301 | 0.317 | 0.304
24 | NCI-H1563 | 0.659 | 0.83 | 0.92 |  | 0.905 | 0.787 | 0.75 | 0.754 | 0.444 | 0.444 | 0.42 | 0.327 | 0.5 | 0.527 | 0.443 | 0.45 | 0.768 | 0.867 | 0.801 | 0.663
25 | SW 1573 | 0.886 | 0.746 | 0.865 | 0.805 | 1.08 | 1.02 | 0.934 | 0.879 | 0.496 | 0.115 | 0.0919 | 0.0873 | 0.199 | 0.148 | 0.142 | 0.169 | 0.651 | 0.503 | 0.597 | 0.44
26 | NCI-H1975 | 0.288 | 0.294 | 0.292 | 0.263 | 0.381 | 0.355 | 0.451 | 0.303 | 0.401 | 0.461 | 0.389 | 0.237 | 0.198 | 0.243 | 0.215 | 0.132 | 0.704 | 0.676 | 0.49 | 0.381
27 | LXF-289 | 0.908 |  | 0.819 | 0.783 | 0.964 | 0.999 | 0.921 | 0.857 | 0.227 | 0.106 | 0.0281 | 0.029 | 0.731 | 0.742 | 0.326 | 0.144 | 0.79 | 0.766 | 0.721 | 0.551
